How the values were obtained:
[1] = in vivo; cited from earlier work
TNF = assay: Serum TNF activity (bioassay) and levels (ELISA) in LPS treated mice; assay type: in vivo, mice (C57BL/6); settings: 100 μg LPS ip with 200 μg/mouse compound, 90 min
Protocol: An early response to LPS administration is the elevation of serum levels of TNF, which peaks at 1.5-2 hr after LPS administration. Mice treated with LPS serve as a model for the effect of drugs on reducing TNF levels under these conditions.
Serum levels of TNF peak within 1.5 hr following LPS administration, and at this time point, we assessed both TNF activity and levels in the serum.
Mice (C57BL/6) were injected ip with 100 μg LPS, concomitantly with HU-211, HU-210, or HU-245 (200 μg/mouse), and 90 min later they were bled, the sera separated and TNF was assayed for its activity (bioassay) and levels (using ELISA kit).

SMILES | cannabimimetic activity relative to Δ-1-tetrahydrocannabinol [1] | TNF levels in serum (ELISA) (TNF)
CCCCCCC(C)(C)c1cc(O)c2c(c1)OC(C)(C)C1CC=C(CO)CC21 (centres unmarked) [HU-210, 7-hydroxy-Δ^6-tetrahydrocannabinol 1,1-dimethylheptyl homologue, reference compound] | ~100 times | –
CCCCCCC(C)(C)c1cc(O)c2c(c1)OC(C)(C)C1CC=C(C(=O)O)CC21 (centres unmarked) [HU-245] | – | significantly reduced

From patent publication US6545041B2, “Tumor necrosis factor alpha (TNF-α) inhibiting pharmaceuticals” (Yessum Research Development Co. of the Hebrew University of …, priority 1995, dated 2003)
